One block for each compound: values may come before it.
How the values were obtained:
human ERK2 = human ERK2 (Homo sapiens, UniProt P28482); test: ERK2 kinase activity assay (cell-free); assay type: biochemical
Protocol: (§1) In a final reaction volume of 25 μL, human ERK2 (5-10 mU) is incubated with 25 mM Tris pH 7.5, 0.02 mM EGTA, 0.33 mg/mL myelin basic protein, 10 mM MgAcetate and [γ-33P-ATP] (specific activity approx. 500 cpm/pmol, concentration as required). The reaction is initiated by the addition of the MgATP mix. After incubation for 40 minutes at room temperature, the reaction is stopped by the addition of 5 μL of a 3% phosphoric acid solution. 10 μL of the reaction is then spotted onto a P30 filtermat and washed three times for 5 minutes in 75 mM phosphoric acid and once in methanol prior to drying and scintillation counting.

PKB gamma = PKB gamma (Homo sapiens, UniProt Q9Y243); test: PKB kinase activity assay; assay type: biochemical
Protocol: In a final reaction volume of 25 μL, PKB(h) (5-10 mU) is incubated with 8 mM MOPS pH 7.0, 0.2 mM EDTA, 30 μM GRPRTSSFAEGKK (SEQ ID No. 26), 10 mM MgAcetate and [γ-33P-ATP] (specific activity approx. 500 cpm/pmol, concentration as required). The reaction is initiated by the addition of the MgATP mix. After incubation for 40 minutes at room temperature, the reaction is stopped by the addition of 5 μL of a 3% phosphoric acid solution. 10 μL of the reaction mixture is then spotted onto a P30 filtermat and washed three times for 5 minutes in 75 mM phosphoric acid and once in methanol prior to drying and scintillation counting.

c-RAF (h) = c-RAF (h) (Homo sapiens, UniProt P04049); test: c-RAF kinase activity assay; assay type: biochemical
Protocol: as §1, with “c-RAF (h)” for “human ERK2”, “0.66” for “0.33”

[1] = test system: HT29 human colon cancer cells; test: Cell proliferation (MTT) assay, HT29 cells; assay type: cell-based; conditions: MTT, 48 hours
Protocol: 6.1 Cell Proliferation (MTT) Assay Single cell suspensions of viable trypsinised cells were seeded into 96-well tissue culture plates at a density of 2×10^3 cells per well in a volume of 100 μl of a suitable culture media supplemented with heat inactivated foetal calf serum (FCS) (e.g., Dulbecco's Modified Eagles Medium (DMEM), with 10% v/v FCS, 1% L-glutamine, 2% (v/v) Hepes, and antibiotics). A set of triplicate wells was prepared for each concentration of the peptide dendrimer being tested. Additional sample wells containing untreated cells or media alone were set up in each treatment plate and processed in parallel as reference controls. A zero-time plate of untreated cells and media-alone wells was simultaneously prepared and an MTT assay carried out on this plate at the time of addition of the kinase inhibitor (i.e., polypeptide or dendrimer) to treatment plates. All plates were cultured for 24 hours before addition of the test dendrimer.
To prepare the MTT solution 100 mg of MTT (3-(4,5-dimethylthiazolyl-2)-2,5-diphenyltetrazolium bromide) (Cat #. M-128, Sigma, St Louis Mo.), is mixed with 20 ml of PBS at pH 7.4. The resulting solution is filter sterilized (0.2 μM syringe filter) and stored at 4° C. protected from light until use. MTT substrate is cleaved in growing cells to yield a water insoluble salt. After solubilisation of the salt crystals, a coloured product is produced the measurement of which allows quantitation of the proliferative activity of the cultured cells.
Appropriate concentrations of the kinase inhibitor were prepared by dilution of freshly prepared sterile 1 mM stock solutions into cell culture media to give a final well volume of 200 μl containing 10% v/v FCS. The zero-plate was processed by addition of MTT at this time. Cell culture was continued for a further 24 or 48 hours before addition of 20 μl of MTT in PBS (5 mg/ml, 0.2 um filter sterilised). The MTT cell proliferation assay measures cell proliferation rate and, in instances where cell viability is compromised, the assay indicates a comparative reduction in cell viability. After a 3 hour incubation in the presence of MTT (5% CO2 in air at 37° C.), plates were centrifuged at 450 g for 5 minutes, supernatant was removed by gentle suction and precipitated tetrazolium salt resuspended into 150 μl DMSO:glycine (0.1M glycine, 0.1M NaCl pH 10.5) (6:1 v/v) solution. Plates were gently vortexed to complete solubilisation of crystalline material and absorbance was read at 550 nm using a microplate reader. Sample data were processed to determine the comparative growth of treated samples relative to untreated controls.
HT29 cells were cultured for 48 hours in the presence of selected dendrimers and proliferation of the cells was assessed by MTT assay essentially as described in Example 6.1. The results were calculated as percentage proliferation of control cells (not treated with dendrimer).

PKC beta I = PKC beta I (Homo sapiens, UniProt P05771); test: PKC kinase activity assay; assay type: biochemical
Protocol: (§2) In a final reaction volume of […] PKC kinase (h) (5-10 mU) is incubated with 20 mM HEPES pH 7.4, 0.03% Triton X-100, […], 0.1 mg/mL phosphatidylserine, 10 μg/mL diacylglycerol, 0.1 mg/mL histone H1 or 50 μM of the peptide ERMRPRKRQGSVRRRV (SEQ ID No. 20), 10 mM MgAcetate and [γ-33P-ATP] (specific activity approx. 500 cpm/pmol, concentration as required). The reaction is initiated by the addition of the MgATP mix. After incubation for 40 minutes at room temperature, the reaction is stopped by the addition of 5 μL of a 3% phosphoric acid solution. 10 μL of the reaction is then spotted onto a P30 filtermat and washed three times for 5 minutes in 75 mM phosphoric acid and once in methanol prior to drying and scintillation counting.

PKC beta II = PKC beta II (Homo sapiens, UniProt P05771); test: PKC kinase activity assay; assay type: biochemical
Protocol: as §2

PKC alpha = PKC alpha (Homo sapiens, UniProt P17252); test: PKC kinase activity assay; assay type: biochemical
Protocol: as §2

PKC beta I, sequence (P05771 whole entry): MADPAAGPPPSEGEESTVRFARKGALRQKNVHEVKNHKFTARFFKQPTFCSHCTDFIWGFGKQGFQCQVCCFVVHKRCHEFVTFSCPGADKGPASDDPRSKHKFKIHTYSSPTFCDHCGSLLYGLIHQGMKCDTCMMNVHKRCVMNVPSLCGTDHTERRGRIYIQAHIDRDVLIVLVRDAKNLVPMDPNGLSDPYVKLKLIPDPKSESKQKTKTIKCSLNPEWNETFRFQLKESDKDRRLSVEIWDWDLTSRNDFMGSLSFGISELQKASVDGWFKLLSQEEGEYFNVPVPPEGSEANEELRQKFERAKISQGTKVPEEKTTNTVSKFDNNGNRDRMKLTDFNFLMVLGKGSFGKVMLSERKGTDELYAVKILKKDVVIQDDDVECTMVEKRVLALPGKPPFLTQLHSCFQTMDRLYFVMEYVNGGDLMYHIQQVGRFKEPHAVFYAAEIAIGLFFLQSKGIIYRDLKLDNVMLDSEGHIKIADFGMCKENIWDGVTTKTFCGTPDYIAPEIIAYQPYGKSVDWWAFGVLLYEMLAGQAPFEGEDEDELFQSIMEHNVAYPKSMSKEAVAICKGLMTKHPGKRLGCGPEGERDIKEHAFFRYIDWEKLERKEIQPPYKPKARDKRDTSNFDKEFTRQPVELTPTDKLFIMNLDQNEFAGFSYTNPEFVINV
PKB gamma, sequence (Q9Y243 whole entry): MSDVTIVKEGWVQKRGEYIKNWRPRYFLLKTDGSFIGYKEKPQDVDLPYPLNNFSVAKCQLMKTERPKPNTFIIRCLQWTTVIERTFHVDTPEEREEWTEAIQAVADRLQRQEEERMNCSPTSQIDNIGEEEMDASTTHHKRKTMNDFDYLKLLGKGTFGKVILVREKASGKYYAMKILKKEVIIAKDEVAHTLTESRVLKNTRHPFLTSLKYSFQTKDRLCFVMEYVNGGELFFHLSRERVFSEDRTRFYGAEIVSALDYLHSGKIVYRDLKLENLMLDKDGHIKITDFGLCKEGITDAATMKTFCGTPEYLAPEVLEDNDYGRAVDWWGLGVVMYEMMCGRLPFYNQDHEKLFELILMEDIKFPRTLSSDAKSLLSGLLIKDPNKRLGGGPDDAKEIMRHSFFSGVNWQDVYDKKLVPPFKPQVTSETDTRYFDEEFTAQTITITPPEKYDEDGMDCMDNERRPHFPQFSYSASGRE
PKC beta II, sequence (P05771 1-673 isoform P05771-2): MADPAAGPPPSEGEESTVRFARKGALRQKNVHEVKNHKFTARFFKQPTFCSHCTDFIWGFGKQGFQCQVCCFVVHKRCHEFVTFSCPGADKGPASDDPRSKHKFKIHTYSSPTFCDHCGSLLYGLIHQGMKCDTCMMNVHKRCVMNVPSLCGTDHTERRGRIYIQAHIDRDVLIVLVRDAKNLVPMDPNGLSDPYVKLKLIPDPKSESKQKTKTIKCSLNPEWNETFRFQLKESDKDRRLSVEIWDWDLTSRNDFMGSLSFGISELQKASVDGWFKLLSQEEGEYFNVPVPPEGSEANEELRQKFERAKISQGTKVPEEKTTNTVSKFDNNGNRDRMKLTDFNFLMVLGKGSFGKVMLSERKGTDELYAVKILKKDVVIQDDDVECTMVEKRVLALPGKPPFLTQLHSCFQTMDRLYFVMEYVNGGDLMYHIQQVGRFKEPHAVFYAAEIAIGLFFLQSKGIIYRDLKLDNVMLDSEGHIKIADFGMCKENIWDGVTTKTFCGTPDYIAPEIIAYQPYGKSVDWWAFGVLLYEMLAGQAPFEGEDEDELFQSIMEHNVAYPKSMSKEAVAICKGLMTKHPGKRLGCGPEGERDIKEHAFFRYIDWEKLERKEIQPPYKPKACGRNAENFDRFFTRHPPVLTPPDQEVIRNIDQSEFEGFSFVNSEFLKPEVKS
human ERK2, sequence (P28482 whole entry): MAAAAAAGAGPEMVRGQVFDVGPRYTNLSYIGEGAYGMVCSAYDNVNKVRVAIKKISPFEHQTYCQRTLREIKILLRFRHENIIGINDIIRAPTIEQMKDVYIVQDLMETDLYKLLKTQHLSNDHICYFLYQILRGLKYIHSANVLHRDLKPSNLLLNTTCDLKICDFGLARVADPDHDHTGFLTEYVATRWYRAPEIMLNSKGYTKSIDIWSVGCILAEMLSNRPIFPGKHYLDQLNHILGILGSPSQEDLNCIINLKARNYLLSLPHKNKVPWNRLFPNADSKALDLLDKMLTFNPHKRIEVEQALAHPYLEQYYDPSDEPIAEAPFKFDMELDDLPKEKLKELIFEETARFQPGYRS

% Kinase inhibition ERK2 (human ERK2; 20 μM, relative to control): 37%
% Kinase inhibition PKB gamma (PKB gamma; 20 μM, relative to control): 96%
Percentage (%) kinase inhibition PKB gamma (PKB gamma; dendrimer conc. 1 μM): 93%
Percentage (%) kinase inhibition PKB gamma (PKB gamma; dendrimer conc. 2 μM): 92%
Percentage (%) kinase inhibition PKB gamma (PKB gamma; dendrimer conc. 250 nm): 94%
Percentage (%) kinase inhibition PKB gamma (PKB gamma; dendrimer conc. 500 nm): 98%
% Kinase inhibition c-RAF (c-RAF (h); 20 μM, relative to control): 93%
Percentage (%) kinase inhibition c-RAF (c-RAF (h); dendrimer conc. 1 μM): 79%
Percentage (%) kinase inhibition c-RAF (c-RAF (h); dendrimer conc. 2 μM): 81%
Percentage (%) kinase inhibition c-RAF (c-RAF (h); dendrimer conc. 250 nm): 64%
Percentage (%) kinase inhibition c-RAF (c-RAF (h); dendrimer conc. 500 nm): 74%
% Kinase inhibition PKC beta I (PKC beta I; 20 μM, relative to control): 98%
Percentage (%) kinase inhibition PKC beta I (PKC beta I; dendrimer conc. 1 μM): 80%
Percentage (%) kinase inhibition PKC beta I (PKC beta I; dendrimer conc. 2 μM): 96%
Percentage (%) kinase inhibition PKC beta I (PKC beta I; dendrimer conc. 250 nm): 19%
Percentage (%) kinase inhibition PKC beta I (PKC beta I; dendrimer conc. 500 nm): 35%
% Kinase inhibition PKC beta II (PKC beta II; 20 μM, relative to control): 83%
Percentage (%) kinase inhibition PKC beta II (PKC beta II; dendrimer conc. 1 μM): 82%
Percentage (%) kinase inhibition PKC beta II (PKC beta II; dendrimer conc. 2 μM): 95%
Percentage (%) kinase inhibition PKC beta II (PKC beta II; dendrimer conc. 250 nm): 22%
Percentage (%) kinase inhibition PKC beta II (PKC beta II; dendrimer conc. 500 nm): 44%
% Kinase inhibition PKC alpha (PKC alpha; 20 μM, relative to control): 98%
Percentage (%) kinase inhibition PKC alpha (PKC alpha; dendrimer conc. 1 μM): 83%
Percentage (%) kinase inhibition PKC alpha (PKC alpha; dendrimer conc. 2 μM): 98%
Percentage (%) kinase inhibition PKC alpha (PKC alpha; dendrimer conc. 250 nm): 23%
Percentage (%) kinase inhibition PKC alpha (PKC alpha; dendrimer conc. 500 nm): 45%
Compound: Dend 10-10(4) whose RSKAKNPLYR peptides are entirely D-amino acids and pegylated with two ethylene glycol units [Dend 10-10(4)DP]
inhibition of proliferation of HT29 cells [1]: substantially greater inhibition of proliferation

Compound: CC(C)C[C@H](NC(=O)[C@@H]1CCCN1C(=O)[C@H](CC(N)=O)NC(=O)[C@H](CCCCN)NC(=O)[C@H](C)NC(=O)[C@H](CCCCN)NC(=O)[C@H](CO)NC(=O)[C@@H](N)CCCNC(=N)N)C(=O)N[C@@H](Cc1ccc(O)cc1)C(=O)N[C@@H](CCCNC(=N)N)C(=O)NCCCC[C@H](NC(=O)[C@H](CCCCNC(=O)[C@H](CCCCNC(=O)[C@H](CCCNC(=N)N)NC(=O)[C@H](Cc1ccc(O)cc1)NC(=O)[C@H](CC(C)C)NC(=O)[C@@H]1CCCN1C(=O)[C@H](CC(N)=O)NC(=O)[C@H](CCCCN)NC(=O)[C@H](C)NC(=O)[C@H](CCCCN)NC(=O)[C@H](CO)NC(=O)[C@@H](N)CCCNC(=N)N)NC(=O)[C@H](CCCNC(=N)N)NC(=O)[C@H](Cc1ccc(O)cc1)NC(=O)[C@H](CC(C)C)NC(=O)[C@@H]1CCCN1C(=O)[C@H](CC(N)=O)NC(=O)[C@H](CCCCN)NC(=O)[C@H](C)NC(=O)[C@H](CCCCN)NC(=O)[C@H](CO)NC(=O)[C@@H](N)CCCNC(=N)N)NC(=O)[C@H](CCCCNC(=O)[C@H](CCCNC(=N)N)NC(=O)[C@H](Cc1ccc(O)cc1)NC(=O)[C@H](CC(C)C)NC(=O)[C@@H]1CCCN1C(=O)[C@H](CC(N)=O)NC(=O)[C@H](CCCCN)NC(=O)[C@H](C)NC(=O)[C@H](CCCCN)NC(=O)[C@H](CO)NC(=O)[C@@H](N)CCCNC(=N)N)NC(=O)[C@H](CCCNC(=N)N)NC(=O)[C@H](Cc1ccc(O)cc1)NC(=O)[C@H](CC(C)C)NC(=O)[C@@H]1CCCN1C(=O)[C@H](CC(N)=O)NC(=O)[C@H](CCCCN)NC(=O)[C@H](C)NC(=O)[C@H](CCCCN)NC(=O)[C@H](CO)NC(=O)[C@@H](N)CCCNC(=N)N)C(=O)NCCCC[C@H](NC(=O)[C@H](CCCCNC(=O)[C@H](CCCNC(=N)N)NC(=O)[C@H](Cc1ccc(O)cc1)NC(=O)[C@H](CC(C)C)NC(=O)[C@@H]1CCCN1C(=O)[C@H](CC(N)=O)NC(=O)[C@H](CCCCN)NC(=O)[C@H](C)NC(=O)[C@H](CCCCN)NC(=O)[C@H](CO)NC(=O)[C@@H](N)CCCNC(=N)N)NC(=O)[C@H](CCCCNC(=O)[C@H](CCCCNC(=O)[C@H](CCCNC(=N)N)NC(=O)[C@H](Cc1ccc(O)cc1)NC(=O)[C@H](CC(C)C)NC(=O)[C@@H]1CCCN1C(=O)[C@H](CC(N)=O)NC(=O)[C@H](CCCCN)NC(=O)[C@H](C)NC(=O)[C@H](CCCCN)NC(=O)[C@H](CO)NC(=O)[C@@H](N)CCCNC(=N)N)NC(=O)[C@H](CCCNC(=N)N)NC(=O)[C@H](Cc1ccc(O)cc1)NC(=O)[C@H](CC(C)C)NC(=O)[C@@H]1CCCN1C(=O)[C@H](CC(N)=O)NC(=O)[C@H](CCCCN)NC(=O)[C@H](C)NC(=O)[C@H](CCCCN)NC(=O)[C@H](CO)NC(=O)[C@@H](N)CCCNC(=N)N)NC(=O)[C@H](CCCCNC(=O)[C@H](CCCNC(=N)N)NC(=O)[C@H](Cc1ccc(O)cc1)NC(=O)[C@H](CC(C)C)NC(=O)[C@@H]1CCCN1C(=O)[C@H](CC(N)=O)NC(=O)[C@H](CCCCN)NC(=O)[C@H](C)NC(=O)[C@H](CCCCN)NC(=O)[C@H](CO)NC(=O)[C@@H](N)CCCNC(=N)N)NC(=O)[C@H](CCCNC(=N)N)NC(=O)[C@H](Cc1ccc(O)cc1)NC(=O)[C@H](CC(C)C)NC(=O)[C@@H]1CCCN1C(=O)[C@H](CC(N)=O)NC(=O)[C@H](CCCCN)NC(=O)[C@H](C)NC(=O)[C@H](CCCCN)NC(=O)[C@H](CO)NC(=O)[C@@H](N)CCCNC(=N)N)C(=O)NCCC(N)=O [Dend 10-10(4)]
remaining activity at 50 µM (human ERK2; final concentration 50 μM, read-out: ERK2 % activity relative to control): 47%
inhibition at 1 µM (PKB gamma; dendrimer conc. 1 μM, read-out: Percentage (%) kinase inhibition PKB gamma): 99%
inhibition at 1 µM (c-RAF (h); dendrimer conc. 1 μM, read-out: Percentage (%) kinase inhibition c-RAF): 71%
dendrimer concentration required for total kill, HT29 cells [1]: 10 µM
inhibition of proliferation of HT29 cells [1]: inhibited
inhibition at 1 µM (PKC beta I; dendrimer conc. 1 μM, read-out: Percentage (%) kinase inhibition PKC beta I): 67%
inhibition at 1 µM (PKC beta II; dendrimer conc. 1 μM, read-out: Percentage (%) kinase inhibition PKC beta II): 75%
inhibition at 1 µM (PKC alpha; dendrimer conc. 1 μM, read-out: Percentage (%) kinase inhibition PKC alpha): 78%
